Patent US10947242B2, “[1,2,4]triazolo[1,5and#8208;A]pyrimidine compounds as PDE2 inhibitors” (Janssen Pharmaceutica NV, priority 2016, dated 2021)
Where “and” joins values, the source holds several entries; their conditions need not be identical. Equal entries are not always repeated. Where two headings read alike, the source gives them in different places.

Experiments:
[1] = biological target: T1, PDE2A (Rattus norvegicus, UniProt Q01062); assay: PDE2 occupancy by test compounds, ex-vivo autoradiography with [3H]B-17a; format: in vivo, Male Wistar rats; details: for ED50: read-out: PDE Occupancy ED50
T1 construct: Twenty μm-thick striatal sections were cut; from tissue; host or cells: rat brain, striatal sections
T1 sequence (Q01062 1-928): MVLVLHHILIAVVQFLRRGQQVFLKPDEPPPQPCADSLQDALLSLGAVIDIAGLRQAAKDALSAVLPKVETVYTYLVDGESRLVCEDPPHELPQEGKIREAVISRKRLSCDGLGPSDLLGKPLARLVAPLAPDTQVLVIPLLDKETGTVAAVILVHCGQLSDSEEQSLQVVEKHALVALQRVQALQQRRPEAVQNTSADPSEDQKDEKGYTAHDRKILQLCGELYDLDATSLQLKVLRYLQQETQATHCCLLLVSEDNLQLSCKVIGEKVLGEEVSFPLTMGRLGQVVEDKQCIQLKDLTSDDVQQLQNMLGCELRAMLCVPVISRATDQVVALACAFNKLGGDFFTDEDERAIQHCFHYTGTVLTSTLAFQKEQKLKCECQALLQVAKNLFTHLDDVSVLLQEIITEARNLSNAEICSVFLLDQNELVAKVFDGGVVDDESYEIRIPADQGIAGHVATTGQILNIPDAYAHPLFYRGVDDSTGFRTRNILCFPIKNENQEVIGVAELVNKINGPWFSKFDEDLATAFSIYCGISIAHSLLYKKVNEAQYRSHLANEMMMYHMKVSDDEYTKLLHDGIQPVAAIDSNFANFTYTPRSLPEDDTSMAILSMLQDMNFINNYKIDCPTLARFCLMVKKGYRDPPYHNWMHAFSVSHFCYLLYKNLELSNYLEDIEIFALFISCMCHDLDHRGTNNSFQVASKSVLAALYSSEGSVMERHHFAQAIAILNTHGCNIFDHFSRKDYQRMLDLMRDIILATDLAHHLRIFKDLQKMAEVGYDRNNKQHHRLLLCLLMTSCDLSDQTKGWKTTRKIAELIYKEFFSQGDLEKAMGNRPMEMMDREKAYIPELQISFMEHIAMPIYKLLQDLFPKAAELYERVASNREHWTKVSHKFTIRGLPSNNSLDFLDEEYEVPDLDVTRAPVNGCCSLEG

[2] = biological target: T2, Human recombinant PDE3A (hPDE3A) (Homo sapiens, UniProt Q14432); assay: In vitro assay PDE3A (SPA, 3H-cAMP hydrolysis); format: biochemical; details: for IC50: hPDE3B pIC50, read-out: pIC50 (converted); for Emax: read-out: hPDE3B Emax, read-out: Emax;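 as to all read-outs here: the method names PDE3A and the table heading PDE3B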
T2 construct: purchased Scottish Biomedical; host or cells: Sf9 insect cells
Summary of the method: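 Human PDE3A, cloned from brain, as partially purified Sf9 lysate. Substrate 0.4 μM cAMP plus [3H]-cAMP (2.4 μCi/ml final) in 50 mM Tris pH 7.8, 8.3 mM MgCl2, 1.7 mM EGTA, 60 min at room temperature, 1% DMSO final. Hydrolysis read by SPA scintillation counting against no-enzyme blanks and DMSO controls.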

[3] = biological target: T3, Human recombinant PDE10A (hPDE10A) (Homo sapiens, UniProt Q9Y233); assay: In vitro assay PDE10A, human clone (SPA, 3H-cAMP hydrolysis); format: biochemical; details: human clone (h), default; for Emax: read-out: hPDE10A2 Emax; for IC50: read-out: hPDE10A2 pIC50 (converted)
T3 construct: His tag (inferred from metal chelate purification); made in house; host or cells: Sf9 insect cells (baculovirus)
Summary of the method: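 Human recombinant PDE10A was expressed in Sf9 cells via baculovirus and incubated with compound in 50 mM Tris pH 7.8, 8.3 mM MgCl2, 1.7 mM EGTA. Substrate was 60 nM cAMP plus 0.008 μCi 3H-cAMP for 60 min at room temperature, read by SPA scintillation counting. Controls used 1% DMSO, and blanks omitted enzyme.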

[4] = biological target: T4, Human recombinant PDE2A (hPDE2A) (Homo sapiens, UniProt O00408); assay: In vitro assay PDE2A (SPA, 3H-cGMP hydrolysis); format: biochemical; details: for Emax: read-out: hPDE2A Emax
T4 construct: His tag (inferred from metal chelate purification); made in house; host or cells: Sf9 insect cells (baculovirus)

[5] = po, 10 mg/kg, route PO (oral), percentage receptor occupancy, ex-vivo autoradiography, striatum
[6] = hPDE2A pIC50, human recombinant PDE2A, 10 μM cGMP substrate
[7] = 10 mg/kg, route SC (subcutaneous), percentage receptor occupancy, ex-vivo autoradiography, striatum
[8] = human recombinant PDE2A, 10 μM cGMP substrate, read-out: hPDE2A pIC50 (converted)
[9] = read-out: hPDE2A pIC50 (converted)
[10] = route PO (oral), drug dose producing 50% receptor occupancy

T3 sequence (Q9Y233 267-1055): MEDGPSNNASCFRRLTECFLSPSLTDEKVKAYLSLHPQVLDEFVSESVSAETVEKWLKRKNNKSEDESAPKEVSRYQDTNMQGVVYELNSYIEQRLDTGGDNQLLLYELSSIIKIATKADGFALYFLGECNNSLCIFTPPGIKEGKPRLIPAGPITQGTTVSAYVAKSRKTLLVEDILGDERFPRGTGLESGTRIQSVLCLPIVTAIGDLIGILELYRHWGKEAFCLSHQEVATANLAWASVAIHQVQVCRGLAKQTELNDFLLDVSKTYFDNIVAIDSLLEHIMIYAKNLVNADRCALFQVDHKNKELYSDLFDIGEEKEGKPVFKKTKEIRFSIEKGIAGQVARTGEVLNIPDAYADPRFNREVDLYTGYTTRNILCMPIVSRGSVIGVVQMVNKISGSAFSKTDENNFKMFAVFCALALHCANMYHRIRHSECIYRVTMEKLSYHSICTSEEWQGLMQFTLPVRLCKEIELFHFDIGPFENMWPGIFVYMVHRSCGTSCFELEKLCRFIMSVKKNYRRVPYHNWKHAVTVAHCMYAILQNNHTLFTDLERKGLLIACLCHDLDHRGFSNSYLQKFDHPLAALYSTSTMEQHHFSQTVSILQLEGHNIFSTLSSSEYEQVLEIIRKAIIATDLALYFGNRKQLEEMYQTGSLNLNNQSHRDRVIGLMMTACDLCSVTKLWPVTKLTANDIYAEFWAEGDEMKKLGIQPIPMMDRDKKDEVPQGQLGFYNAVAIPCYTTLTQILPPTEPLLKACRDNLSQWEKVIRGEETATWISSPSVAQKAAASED
T4 sequence (O00408 whole entry): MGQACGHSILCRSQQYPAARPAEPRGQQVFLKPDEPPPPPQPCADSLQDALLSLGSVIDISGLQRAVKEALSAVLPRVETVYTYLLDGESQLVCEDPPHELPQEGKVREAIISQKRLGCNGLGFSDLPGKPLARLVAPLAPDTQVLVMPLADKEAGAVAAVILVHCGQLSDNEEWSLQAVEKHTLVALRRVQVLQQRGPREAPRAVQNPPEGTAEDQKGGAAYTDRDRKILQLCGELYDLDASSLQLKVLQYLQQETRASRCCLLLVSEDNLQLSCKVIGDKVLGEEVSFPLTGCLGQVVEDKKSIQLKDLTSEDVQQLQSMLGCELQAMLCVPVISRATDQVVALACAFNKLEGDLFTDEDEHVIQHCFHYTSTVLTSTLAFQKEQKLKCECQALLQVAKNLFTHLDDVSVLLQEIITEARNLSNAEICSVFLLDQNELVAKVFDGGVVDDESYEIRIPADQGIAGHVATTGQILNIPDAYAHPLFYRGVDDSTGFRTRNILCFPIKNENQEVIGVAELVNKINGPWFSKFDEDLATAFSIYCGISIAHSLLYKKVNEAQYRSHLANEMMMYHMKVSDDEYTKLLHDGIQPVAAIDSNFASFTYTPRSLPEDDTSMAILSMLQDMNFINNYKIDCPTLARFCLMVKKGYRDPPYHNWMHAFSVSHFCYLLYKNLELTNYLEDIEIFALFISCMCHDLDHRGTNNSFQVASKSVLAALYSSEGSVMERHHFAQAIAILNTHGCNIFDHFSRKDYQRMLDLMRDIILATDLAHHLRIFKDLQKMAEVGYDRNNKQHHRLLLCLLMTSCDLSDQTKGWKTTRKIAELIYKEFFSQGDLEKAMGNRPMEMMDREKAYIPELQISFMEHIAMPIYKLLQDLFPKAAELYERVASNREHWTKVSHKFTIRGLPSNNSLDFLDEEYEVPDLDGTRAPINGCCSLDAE
T2 sequence (Q14432 whole entry): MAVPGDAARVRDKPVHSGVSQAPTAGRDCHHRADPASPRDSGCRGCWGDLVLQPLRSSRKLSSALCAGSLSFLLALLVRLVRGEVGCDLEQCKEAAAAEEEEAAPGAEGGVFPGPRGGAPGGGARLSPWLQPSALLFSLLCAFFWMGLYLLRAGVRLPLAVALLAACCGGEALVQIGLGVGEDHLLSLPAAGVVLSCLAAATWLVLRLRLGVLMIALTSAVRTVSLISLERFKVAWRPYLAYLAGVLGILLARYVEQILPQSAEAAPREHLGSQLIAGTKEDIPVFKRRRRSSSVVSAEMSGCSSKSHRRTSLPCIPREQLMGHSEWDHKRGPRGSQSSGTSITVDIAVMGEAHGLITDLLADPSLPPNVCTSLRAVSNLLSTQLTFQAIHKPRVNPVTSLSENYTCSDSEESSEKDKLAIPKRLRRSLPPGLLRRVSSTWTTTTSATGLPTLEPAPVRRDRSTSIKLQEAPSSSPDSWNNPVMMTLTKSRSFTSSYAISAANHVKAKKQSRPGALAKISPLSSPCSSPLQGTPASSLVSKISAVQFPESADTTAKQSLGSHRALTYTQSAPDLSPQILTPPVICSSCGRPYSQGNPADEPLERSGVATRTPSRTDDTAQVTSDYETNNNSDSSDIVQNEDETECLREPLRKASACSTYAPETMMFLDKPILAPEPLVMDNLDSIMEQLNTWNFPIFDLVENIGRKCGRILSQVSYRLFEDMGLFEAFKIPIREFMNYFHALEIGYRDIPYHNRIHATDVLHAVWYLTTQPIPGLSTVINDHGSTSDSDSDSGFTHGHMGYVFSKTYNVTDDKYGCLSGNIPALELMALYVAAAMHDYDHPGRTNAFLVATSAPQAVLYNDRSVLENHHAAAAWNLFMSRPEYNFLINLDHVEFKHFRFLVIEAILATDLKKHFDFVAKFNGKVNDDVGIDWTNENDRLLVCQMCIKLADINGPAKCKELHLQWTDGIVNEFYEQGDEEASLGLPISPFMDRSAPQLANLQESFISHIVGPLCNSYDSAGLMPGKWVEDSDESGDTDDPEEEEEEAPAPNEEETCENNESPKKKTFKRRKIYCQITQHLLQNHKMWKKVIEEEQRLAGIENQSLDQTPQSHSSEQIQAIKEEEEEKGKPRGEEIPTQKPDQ

receptor occupancy at 10 mg/kg [1, 5]	melting point	IC50 [2]	Emax [2]	Emax [3]	IC50 [3]	Emax [4]	IC50 [4, 8]	Emax ([4]; human recombinant PDE2A)	IC50 [4, 9]	receptor occupancy at 10 mg/kg ([1]; sc, 10 mg/kg, route SC (subcutaneous), percentage receptor occupancy, ex-vivo autoradiography, striatum)	ED50 [1, 10]	Structure (SMILES)	PDE2 Occupancy at 10 mg/kg ([1]; 10 mg/kg, route PO (oral), percentage receptor occupancy, ex-vivo autoradiography, striatum)	IC50 ([4]; hPDE2A pIC50)	IC50 [4, 6]	receptor occupancy at 10 mg/kg [1, 7]	ED50 ([1]; po)	hPDE10A2 Emax [3]	hPDE3B Emax [2]
	263.81 °C	5750 nM	42%	95%	513 nM	99%	2.09 nM	99%	2.09 nM	12%		Cc1cc(C(=O)N2CC[C@@H](C)[C@H](c3cc(C(F)F)nc4ncnn34)C2)cnc1C [Compound 49]							
2%	228.39 °C	> 10000 nM	22%	76%	3020 nM	101%	13.8 nM	101%	13.8 nM			Cc1cnc(C(F)(F)F)cc1C(=O)N1CC[C@@H](C)[C@H](c2cc(C(F)F)nc3ncnn23)C1 [Compound 52]							
0%	209.73 °C	380 nM	95%	100%	45.7 nM	102%	0.407 nM	102%	0.407 nM			C[C@@H]1CCN(C(=O)c2cc3ccccc3o2)C[C@H]1c1cc(C(F)F)nc2ncnn12 [Compound 69]							
0%	177.6 °C	> 1000 nM	46%	92%	105 nM	100%	1.02 nM	100%	1.02 nM			C[C@@H]1CCN(C(=O)c2ccc(Cl)c(C3CC3)c2)C[C@H]1c1cc(C(F)F)nc2ncnn12 [Compound 72]							
54%	177.37 °C	676 nM	96%	98%	83.2 nM	101%	0.457 nM	101%	0.457 nM		5.67 mg/kg	COc1c(C)cc(C(=O)N2CC[C@@H](C)[C@H](c3cc(C(F)F)nc4ncnn34)C2)cc1C [Compound 77]							
85%	201.12 °C	2570 nM	84%	99%	36.3 nM and 39.8 nM	101%	0.398 nM	101%	0.457 nM		7.8 mg/kg	Cc1cc(C(=O)N2CC[C@@H](C)[C@H](c3cc(C(F)F)nc4ncnn34)C2)cc(C2CC2)n1 [Compound 93]							

Structure (SMILES)	receptor occupancy at 10 mg/kg [1, 5]	melting point	IC50 [2]	Emax [2]	Emax [3]	IC50 [3]	Emax [4]	IC50 [4, 8]	Emax ([4]; human recombinant PDE2A)	IC50 [4, 9]	receptor occupancy at 10 mg/kg ([1]; sc, 10 mg/kg, route SC (subcutaneous), percentage receptor occupancy, ex-vivo autoradiography, striatum)	ED50 [1, 10]	PDE2 Occupancy at 10 mg/kg ([1]; 10 mg/kg, route PO (oral), percentage receptor occupancy, ex-vivo autoradiography, striatum)	IC50 ([4]; hPDE2A pIC50)	IC50 [4, 6]	receptor occupancy at 10 mg/kg [1, 7]	ED50 ([1]; po)	hPDE10A2 Emax [3]	hPDE3B Emax [2]
COc1cc(C(=O)N2CC[C@@H](C)[C@H](c3cc(C)nc4ncnn34)C2)cc(Cl)n1 [Compound 22]	18%	217.82 °C	1510 nM	87%	99%	15.8 nM	100%						30	2.34 nM	2.34 nM				
O=C(c1ccc2ncsc2c1)N1[C@H]2CC[C@H](c3cc(C(F)F)nc4ncnn34)[C@@H]1CC2 [Compound 25a]		240.33 °C	8710 nM	54%	94%	589 nM and 389 nM	100%	0.708 nM	100%	1.07 nM						66%	4 mg/kg	96	
Cc1cc(C(=O)N2[C@H]3CC[C@H](c4cc(C(F)F)nc5ncnn45)[C@@H]2CC3)cc(C)n1 [Compound 29]		176.52 °C	> 10000 nM		90%	692 nM	101%	1.51 nM	101%	1.51 nM						31%			18
Cc1cc(Cl)cc(C(=O)N2CC[C@@H](C)[C@H](c3cc(C(F)F)nc4ncnn34)C2)c1 [Compound 102]	-4%	215.44 °C	> 1000 nM	44%	95%	26.3 nM	100%							0.676 nM	0.676 nM				
